Measured values: patent US11491127B2, “Therapeutic use of compounds” (UCL BUSINESS LTD, priority 2010, dated 2022)
Where two headings read alike, the source gives them in different places.

How the values were obtained:
[1] = test system: phosphoinositide (PIP and PIP2) turnover in Dictyostelium AX2 cells; assay: Dictyostelium phospholipid labelling (PIP and PIP2 turnover); type: cell-based, Dictyostelium discoideum; conditions: for activity at 500 µM: Dictyostelium, 0.1 h
Method: Phospholipid labelling was quantified using a Typhoon phosphor-imager. Even loading was determined using total lipid stain with copper sulphate.

[2] = Table 2; cited from earlier work
[3] = test system: release of 3H arachidonic acid / palmitic acid radiolabel from Dictyostelium cells; assay: Fatty acid release (3H radiolabel release from labelled cells); type: cell-based, Dictyostelium discoideum; conditions: for activity at 500 µM: Dictyostelium, 0.5 h, 3H-AA labelled cells, 0.5 mM treatment, read-out: AA release [% of control]; for effect of PLA2 inhibitors on radiolabel release from 3H-AA cells: BEL 80 μM, MAFP 50 μM, BPB 20 μM, cocktail of all three
[4] = test system: PTZ-induced epileptiform activity in entorhinal cortex-hippocampal slices; assay: In vitro PTZ acute seizure model, entorhinal cortex-hippocampus slices; type: cell-based, rat; conditions: PTZ 2 mM, [K+] 6 mM; compounds equimolar 1 mM; 30 to 40 minutes after application
Method: The rats (p21) were decapitated after killing by intraperitoneal injection with an overdose of pentobarbitone (500 mg/kg). The brain was removed and placed in ice-cold sucrose solution in mM: NaCl 87, KCl 2.5, MgCl2 7, CaCl2 0.5, NaH2PO4 1.25, sucrose 75, glucose 25, equilibrated with 95% 02/5% CO2 (pH 7.4). Horizontal combined entorhinal cortex-hippocampus slices (350 μm) were prepared with a Leica vibratome (Leica V T1200S) and were then stored in an interface chamber that contained artificial cerebrospinal fluid solution (aCSF) containing in mM: NaCl 119, KCl 2.5, MgSO4 4, CaCl2 4, NaHCO326.2, NaH2PO4 1, glucose 11, and gassed with 95% O2/5% CO2. They were stored for over one hour before being transferred to a submersion recording chamber continually perfused with carbogenated aCSF for recording. Field potential recordings were made by placing glass microelectrodes (˜1-2 MΩ) filled with aCSF solution in stratum radiatum of CA1. Bipolar stimulating electrodes were positioned in the Schaffer collateral/commissural fibre pathway in stratum radiatum to confirm slice viability. In the PTZ acute seizure model, PTZ (2 mM) was added to the perfusate and [K+] was increased to 6 mM in order to induce epileptiform activity (Armand et al., 1998). In the low Mg^2+ acute seizure model, Mg^2+ free aCSF was applied to generate rhythmic short recurrent discharges. Novel anticonvulsants were applied once the frequency and amplitude of the epileptiform discharges were stable over a period of 10 min. Anticonvulsant effects were evaluated by measuring the variation of frequency of the discharges every minute. The data acquired from the 30 to 40 minutes after application novel anticonvulsants were compared by ANOVA followed by post-hoc testing using Tukey test, using SPSS statistical analysis.

[5] = test system: inositol levels in Dictyostelium cells; assay: Inositol levels in treated Dictyostelium cells; type: cell-based, Dictyostelium discoideum; conditions: time period causing phosphoinositide attenuation (9 min)
Method: Following a 6 min incubation, labelling solution was removed and cells were lysed in acidified methanol and phospholipids were separated as previously detailed (Williams et al., 1999). Phospholipid labelling was quantified using a Typhoon phosphor-imager. Even loading was determined using total lipid stain with copper sulphate. Inositol levels were measured from five hour developed cells (similar to phospholipid labelling), following lyophilisation, as previously described (Maslanski & Busa, 1990).

[6] = test system: uptake of 3H arachidonic acid / palmitic acid into Dictyostelium cells; assay: Fatty acid uptake (3H radiolabel incorporation into cells); type: cell-based, Dictyostelium discoideum
[7] = read-out: PIP Level (% control), Table 1, 0.5 mM compound, 3 min pre-treatment + 6 min labelling, wild type Dictyostelium
[8] = Table 1, 0.5 mM compound, 3 min pre-treatment + 6 min labelling, wild type Dictyostelium
[9] = read-out: PIP level % control, Table 2, VPA and straight chain acids in Dictyostelium
[10] = Table 1, wild type Dictyostelium

Q: For CCCCC(CC)C(=O)O (stereo not drawn) [2-ethylhexanoic acid], which activity at 500 µM [1, 7] is on record?
A: 22.2%

Q: For CCCCCC(C)C(=O)O (stereo not drawn) [2-methylheptanoic], which “PIP Level (% control)” value [1, 8] is on record?
A: 16.1 % control

Q: For O=C(O)C(c1ccccc1)c1ccccc1 [Diphenylacetic acid, 2,2-diphenylacetic acid], which activity at 500 µM [1, 7] is on record?
A: 39%

Q: Which activity at 500 µM [1, 7] does the source give for CCCCC=O [pentanal] here?
A: 52%

Q: Which activity at 500 µM [1, 7] does the source give for CC(C)C(C(=O)O)C(C)C [DIA, diisopropylacetic acid] here?
A: 18.6%

Q: With CCCCC(=O)OC [methylvalerate] as the molecule, how does the activity at 500 µM [1, 7] read?
A: 46%

Q: Which activity at 500 µM [1, 7] does the source give for CC(CC(=O)O)CC(C)(C)C (stereo not drawn) [3,5,5-trimethylhexanoic acid] here?
A: 32%

Q: With CC1(C)C(C(=O)O)C1(C)C [TMCA, tetramethylcyclopropane carboxylic acid] as the molecule, how does the “PIP Level (% control)” value [1, 8] read?
A: 33.9 % control

Q: Which activity at 500 µM [1, 7] does the source give for CCCCCCCCCCCCCCCCC(=O)O [heptadecanoic acid] here?
A: 92.3%

Q: What about the activity at 500 µM [1, 9] of the same molecule?
A: 92.3%

Q: What about the pKa [2] of the same molecule?
A: 4.78

Q: For CCCCCCCCC(CCC)C(=O)O (stereo not drawn) [2-propyl-decanoic acid], which activity at 500 µM ([3]; Table 3, 30 min) is on record?
A: 56%

Q: Which “frequency of epileptiform discharges (seizure discharge frequency)” value (“frequency of epileptiform discharges” for short) [4] does the source give for CCCCCCCCCC(=O)O [decanoic acid] here?
A: 0.23±0.23%

Q: What about the activity at 500 µM [1, 7] of the same molecule?
A: 12.9%

Q: What about the activity at 500 µM [1, 9] of the same molecule?
A: 12.9%

Q: What about the activity at 500 µM ([3]; Table 3, 30 min) of the same molecule?
A: 62%

Q: Which activity at 500 µM [1, 7] does the source give for CCCCCCC(CO)CCCC (stereo not drawn) [2-butyl-1-octanol] here?
A: 93%

Q: For CCCCCCCCC=O [nonanal], which activity at 500 µM [1, 7] is on record?
A: 99%

Q: Which “PIP Level (% control)” value [1, 8] does the source give for CNC(=O)C1C(C)(C)C1(C)C [MTMCD, N-methyl-tetramethyl-cyclopropane carboxamide] here?
A: 50.8 % control

Q: With CC(C)CCCC(=O)O [5-methylhexanoic acid] as the molecule, how does the activity at 500 µM [1, 7] read?
A: 7.2%

Q: What does the source list for CCCCCC(=O)O [hexanoic acid]?
A: activity at 500 µM [1, 7]: 49.2%; activity at 500 µM [1, 9]: 49.2%

Q: Which activity at 500 µM [1, 7] does the source give for CCCCCCCCCCCC(=O)O [dodecanoic acid] here?
A: 42%

Q: What about the activity at 500 µM [1, 9] of the same molecule?
A: 42%

Q: And the pKa [2]?
A: 4.85

Q: What about the activity at 500 µM ([3]; Table 3, 30 min) of the same molecule?
A: 89%

Q: With CCCCC(=O)O [pentanoic acid] as the molecule, how does the “frequency of epileptiform discharges” value [4] read?
A: not seen

Q: What about the activity at 500 µM [1, 7] of the same molecule?
A: 66.9%

Q: And the activity at 500 µM [1, 9]?
A: 66.9%

Q: What about the pKa [2] of the same molecule?
A: 4.84

Q: For CC/C=C/C(=O)O [trans-pent-2-enoic acid], which activity at 500 µM [1, 7] is on record?
A: 50.4%

Q: Which activity at 500 µM [1, 7] does the source give for CCCCCCCCC(C)CC(=O)O (stereo not drawn) [3-methylundecanoic acid] here?
A: 50%

Q: With O=C(CBr)c1ccc(Br)cc1 [BPB, reference compound] as the molecule, how does the “effect of PLA2 inhibitors on radiolabel release from 3H-AA cells” value [3] read?
A: reduced radiolabel release

Q: Which “PIP Level (% control)” value [1, 8] does the source give for CC1(C)C(C(N)=O)C1(C)C [TMCD, tetramethylcyclopropane-carboxamide] here?
A: 72.5 % control

Q: What does the source list for CCCCCC(C)CCC(=O)O (stereo not drawn) [4-methylnonanoic acid]?
A: activity at 500 µM [1, 7]: 45%; activity at 500 µM ([3]; Table 3, 30 min): 63%

Q: Which activity at 500 µM [1, 7] does the source give for CCC(C)CC(=O)O (stereo not drawn) [3-methylpentanoic acid] here?
A: 64%

Q: Which “frequency of epileptiform discharges” value [4] does the source give for CCCCCCC(CCC)C(=O)O (stereo not drawn) [2-propyloctanoic acid] here?
A: 5.3±3.3%

Q: And the activity at 500 µM ([3]; Table 3, 30 min)?
A: 45%

Q: And the “radiolabel release activity relative to control” value ([3]; Table 3, 30 min, 0.5 mM)?
A: ≤ 45 % of control

Q: For CCCCC(C)C(=O)O (stereo not drawn) [2-methylhexanoic acid], which activity at 500 µM [1, 7] is on record?
A: 68.1%

Q: With CCCCCCCCC(CC)C(=O)O (stereo not drawn) [2-ethyl-decanoic] as the molecule, how does the activity at 500 µM ([3]; Table 3, 30 min) read?
A: 73%

Q: Which activity at 500 µM [1, 7] does the source give for CCCCCCCC(=O)O [octanoic acid] here?
A: 16.7%

Q: And the activity at 500 µM [1, 9]?
A: 16.7%

Q: What about the pKa [2] of the same molecule?
A: 4.89

Q: What about the activity at 500 µM ([3]; Table 3, 30 min) of the same molecule?
A: 72%

Q: With CCCC(CO)CCC [2-propyl-1-pentanol] as the molecule, how does the activity at 500 µM [1, 7] read?
A: 101%

Q: With CCCC(C(N)=O)C(C)C (stereo not drawn) [PID, propylisopropylacetamide] as the molecule, how does the activity at 500 µM [1, 7] read?
A: 59%

Q: With CCC(C)C(CC)C(N)=O (stereo not drawn) [valnocatmide, 2-ethyl-3-methyl valeramide, reference compound] as the molecule, how does the “PIP Level (% control)” value [1, 8] read?
A: 64 % control

Q: With CCCOC(=O)C(C)CCC (stereo not drawn) [n-propyl 2-methylvalerate] as the molecule, how does the activity at 500 µM [1, 7] read?
A: 121%

Q: For NCCCC(=O)O [GABA, 4-aminobutanoic acid, reference compound], which activity at 500 µM [1, 7] is on record?
A: 60.8%

Q: Which activity at 500 µM [1, 7] does the source give for CC(C)(C)CC(=O)O [TBA, tert-butylacetic acid] here?
A: 21.4%

Q: For 4-hexenoic acid, (cis + trans), which “PIP Level (% control)” value [1, 8] is on record?
A: 58 % control

Q: Which “frequency of epileptiform discharges” value [4] does the source give for CCCCCCC(CCCC)C(=O)O (stereo not drawn) [2-butyloctanoic acid] here?
A: 5.2±5.0%

Q: Which “PIP Level (% control)” value [1, 8] does the source give for Tert-butyl amide here?
A: 47.6 % control

Q: Which results are given for CCCCCCCCC(=O)O [nonanoic acid]?
A: frequency of epileptiform discharges (seizure discharge frequency) [4]: 20.9±7.5%; activity at 500 µM [1, 7]: 8%; activity at 500 µM [1, 9]: 8%; reduction of PIP2 signalling [1, 10]: 93%; reduction of PIP signalling [1, 10]: 92%; pKa [2]: 4.95; reduction in inositol levels [5]: do not acutely deplete inositol; activity at 500 µM ([3]; Table 3, 30 min): 66%

Q: For CCCCC(C)(C)C(=O)O [2,2-dimethylhexanoic], which “PIP Level (% control)” value [1, 8] is on record?
A: 29.7 % control

Q: Which activity at 500 µM [1, 7] does the source give for C=CCC(C)(C)C(=O)O [2,2-dimethyl-4-pentenoic acid] here?
A: 60%

Q: For CCCCCCCC=O [octanal], which activity at 500 µM [1, 7] is on record?
A: 260%

Q: With CCCC(C)C(=O)O (stereo not drawn) [2-methylpentanoic acid] as the molecule, how does the activity at 500 µM [1, 7] read?
A: 59%

Q: For CCC(C)CCC(=O)O (stereo not drawn) [4-methylhexanoic acid], which activity at 500 µM [1, 7] is on record?
A: 68%

Q: For CCCCC(CC)CCC(=O)O (stereo not drawn) [4-ethyloctanoic acid], which activity at 500 µM [1, 7] is on record?
A: 13.2%

Q: What about the activity at 500 µM ([3]; Table 3, 30 min) of the same molecule?
A: 87%

Q: Which activity at 500 µM [1, 7] does the source give for CCCCCCC(=O)O [heptanoic acid] here?
A: 31.2%

Q: What about the activity at 500 µM [1, 9] of the same molecule?
A: 31.2%

Q: What about the pKa [2] of the same molecule?
A: 4.89

Q: What does the source list for CCCC(C(=O)O)C(C)C (stereo not drawn) [PIA, propylisopropylacetic acid]?
A: effect on 3H-AA uptake compared with VPA ([6]; 3H-AA, FIG. 9): elevated uptake; activity at 500 µM [1, 7]: 15.4%; inhibitory effect on radiolabel release ([3]; 3H-AA, FIG. 9): strong

Q: Which “effect of PLA2 inhibitors on radiolabel release from 3H-AA cells” value [3] does the source give for O=C1O/C(=C/Br)CCC1c1cccc2ccccc12 (stereo not drawn) [BEL, reference compound] here?
A: reduced radiolabel release

Q: With latrunculin as the molecule, how does the “effect on VPA-induced AA uptake” value ([6]; latrunculin 10 μM) read?
A: failed to attenuate

Q: What about the “fatty acid uptake in control cells” value ([6]; latrunculin 10 μM) of the same molecule?
A: decreased uptake

Q: Which activity at 500 µM [1, 7] does the source give for C=CC(C)CC(=O)O (stereo not drawn) [3-methyl-4-pentenoic acid] here?
A: 84%

Q: For CCCCCCCCC(CO)CCCCCC (stereo not drawn) [2-hexyl-1-decanol], which activity at 500 µM [1, 7] is on record?
A: 191%
